Source: patent US11174264B2, “TYK2 inhibitors and uses thereof” (Nimbus Lakshmi, Inc., priority 2019, dated 2021)

How the values were obtained:
[1] = molecular target: human TYK2 (JH2domain-pseudokinase) (Homo sapiens (Human), UniProt P29597); assay: TYK2 JH2 Domain Binding Assay (KINOMEscan); conditions: read-out: hTYK2_JH2_Binding (Kd)
Description: Binding constants for compounds of the present invention against the JH2 domain were determined by the following protocol for a KINOMEscan® assay (DiscoveRx). A fusion protein of a partial length construct of human TYK2 (JH2domain-pseudokinase) (amino acids G556 to D888 based on reference sequence NP_003322.3) and the DNA binding domain of NFkB was expressed in transiently transfected HEK293 cells. From these HEK 293 cells, extracts were prepared in M-PER extraction buffer (Pierce) in the presence of Protease Inhibitor Cocktail Complete (Roche) and Phosphatase Inhibitor Cocktail Set II (Merck) per manufacturers' instructions. The TYK2 (JH2domain-pseudokinase) fusion protein was labeled with a chimeric double-stranded DNA tag containing the NFkB binding site (5′-[…]-3′) fused to an amplicon for qPCR readout, which was added directly to the expression extract (the final concentration of DNA-tag in the binding reaction is 0.1 nM).
The liganded beads were blocked with excess biotin and washed with blocking buffer (SeaBlock (Pierce), 1% BSA, 0.05% Tween 20, 1 mM DTT) to remove unbound ligand and to reduce nonspecific binding.
Extracts were used directly in binding assays without any enzyme purification steps at a ≥10,000-fold overall stock dilution (final DNA-tagged enzyme concentration <0.1 nM). Extracts were loaded with DNA-tag and diluted into the binding reaction in a two step process. First extracts were diluted 1:100 in 1× binding buffer (PBS/0.05% Tween 20/10 mM DTT/0.1% BSA/2 μg/ml sonicated salmon sperm DNA) containing 10 nM DNA-tag. This dilution was allowed to equilibrate at room temperature for 15 minutes and then subsequently diluted 1:100 in 1× binding buffer. […] Kds were determined using an 11-point 3-fold compound dilution series with three DMSO control points. […] The compounds were then diluted directly into the assays such that the final concentration of DMSO was 0.9%. All reactions performed in polypropylene 384-well plates. Each was a final volume of 0.02 mL. Assays were incubated with shaking for 1 hour at room temperature. Then the beads were pelleted and washed with wash buffer (1×PBS, 0.05% Tween 20) to remove displaced kinase and test compound. […] The qPCR protocol consisted of a 10 minute hot start at 95° C., followed by 35 cycles of 95° C. for 15 seconds, 60° C. for 1 minute.
The compounds were then diluted directly into the assays such that the final concentration of DMSO was 0.9%. […] Kd measurements were performed in duplicate.
Binding constants (Kd values) were calculated with a standard dose-response curve using the Hill equation: […]
The Hill Slope was set to −1.

[2] = molecular target: JAK2 kinase domain (JH1) (Homo sapiens (Human), UniProt O60674); assay: JAK2 Radioactive Kinase Assay; type: biochemical; conditions: 10 μM compound, ATP at 10 μM; for inhibition at 10 µM: read-out: JAK2_IC50_RB (% INH_@_10 uM) at 10.0 uM [% INH]
Sequence of JAK2 kinase domain (JH1) (O60674 849-1124): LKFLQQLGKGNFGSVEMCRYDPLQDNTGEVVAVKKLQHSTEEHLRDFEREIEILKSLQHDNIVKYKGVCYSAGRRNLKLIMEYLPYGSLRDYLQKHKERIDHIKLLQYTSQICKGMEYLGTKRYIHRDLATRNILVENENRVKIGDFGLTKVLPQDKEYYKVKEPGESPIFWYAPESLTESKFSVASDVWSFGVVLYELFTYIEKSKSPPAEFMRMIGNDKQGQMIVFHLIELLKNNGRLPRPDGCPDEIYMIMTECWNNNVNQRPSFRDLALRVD
Description: (§1) The Tyk2 and JAK2 radioactive kinase assay measures the percent inhibition at the Tyk2 kinase domain (JH1) and the percent inhibition at the JAK2 kinase domain (JH1). Results of the assay are expressed as percent inhibition at 10 μM.

[3] = molecular target: JAK1 kinase domain (Homo sapiens (Human), UniProt P23458); assay: JAK1 Radioactive Kinase Assay; type: biochemical; conditions: 10 μM compound; for inhibition at 10 µM: read-out: JAK1_IC50_RB (% INH_@_10 uM) at 10.0 uM [% INH]
Sequence of JAK1 kinase domain (P23458 875-1153): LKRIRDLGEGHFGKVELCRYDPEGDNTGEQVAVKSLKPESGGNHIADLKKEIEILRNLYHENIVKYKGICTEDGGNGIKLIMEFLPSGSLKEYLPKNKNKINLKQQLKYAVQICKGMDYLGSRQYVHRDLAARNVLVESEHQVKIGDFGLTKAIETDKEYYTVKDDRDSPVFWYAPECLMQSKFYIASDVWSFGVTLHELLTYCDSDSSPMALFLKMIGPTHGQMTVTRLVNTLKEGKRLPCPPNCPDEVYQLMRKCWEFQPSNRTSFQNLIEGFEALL
Source text: (§2) Similar assays were run to measure the percent inhibition at the JAK1 and JAK3 kinase domains.

[4] = molecular target: JAK3 kinase domain (Homo sapiens (Human), UniProt P52333); assay: JAK3 Radioactive Kinase Assay; type: biochemical; conditions: 10 μM compound; for inhibition at 10 µM: read-out: JAK3_IC50_RB (% INH_@_10 uM) at 10.0 uM [% INH]
Sequence of JAK3 kinase domain (P52333 822-1111): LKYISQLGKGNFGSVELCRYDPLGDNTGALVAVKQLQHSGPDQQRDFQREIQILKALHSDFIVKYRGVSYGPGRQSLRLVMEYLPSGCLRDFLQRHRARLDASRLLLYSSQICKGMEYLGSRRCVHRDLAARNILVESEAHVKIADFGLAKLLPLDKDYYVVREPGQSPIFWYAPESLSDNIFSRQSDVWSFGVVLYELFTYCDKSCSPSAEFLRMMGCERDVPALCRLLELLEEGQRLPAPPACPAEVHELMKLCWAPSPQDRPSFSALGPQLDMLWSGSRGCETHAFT
Source text: as §2

[5] = tested on: IL-12 induced STAT4 phophorylation mediated by Tyk2/JAK2 (heterodimeric complex); assay: IL-12 Induced pSTAT4 in Human PBMC; type: cell-based; conditions: for IC50: 1.7 ng/mL IL-12, read-out: PBMC_IL-12-pSTAT4 (IC50); for inhibition at 0.05 µM: Homo sapiens, PBMC, 1.7 ng/mL IL-12, read-out: PBMC_IL-12-pSTAT4 (% Inhibition_Average_@0.05 uM) [%]
Description: Human PBMC are isolated from buffy coat and are stored frozen for assays as needed. […] 15 μl of compound or DMSO is added to the well at the desired concentrations and incubated at 1 hr at 37° C. 15 μl of stimulus (final concentration of 1.7 ng/mL IL-12) is added for 30 minutes prior to pSTAT4 and total STAT4 analysis using cell lysates prepared and analyzed by MSD reagents as per manufacturer protocol. The final DMSO concentration of compound in the assay is 0.1%.
The IL-12 Induced pSTAT4 assay evaluates the inhibition of IL-12 induced STAT4 phophorylation mediated by Tyk2/JAK2 (heterodimeric complex).

[6] = molecular target: Tyk2 kinase domain (JH1) (Homo sapiens (Human), UniProt P29597); assay: Tyk2 Radioactive Kinase Assay; type: biochemical; conditions: 10 μM compound, ATP at 10 μM; read-out: TYK2_IC50_RB (% INH_@_10 uM) at 10.0 uM [% INH]
Sequence of Tyk2 kinase domain (JH1) (P29597 897-1176): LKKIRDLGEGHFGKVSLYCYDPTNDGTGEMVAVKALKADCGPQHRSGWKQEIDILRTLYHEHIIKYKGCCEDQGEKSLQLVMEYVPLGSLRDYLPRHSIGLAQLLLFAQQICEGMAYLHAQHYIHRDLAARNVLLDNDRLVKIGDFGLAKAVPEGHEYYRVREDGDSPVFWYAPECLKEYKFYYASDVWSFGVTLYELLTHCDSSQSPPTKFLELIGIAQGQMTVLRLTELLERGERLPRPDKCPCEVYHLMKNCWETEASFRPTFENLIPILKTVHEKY
Description: as §1

Sequence of human TYK2 (JH2domain-pseudokinase) (P29597 556-888): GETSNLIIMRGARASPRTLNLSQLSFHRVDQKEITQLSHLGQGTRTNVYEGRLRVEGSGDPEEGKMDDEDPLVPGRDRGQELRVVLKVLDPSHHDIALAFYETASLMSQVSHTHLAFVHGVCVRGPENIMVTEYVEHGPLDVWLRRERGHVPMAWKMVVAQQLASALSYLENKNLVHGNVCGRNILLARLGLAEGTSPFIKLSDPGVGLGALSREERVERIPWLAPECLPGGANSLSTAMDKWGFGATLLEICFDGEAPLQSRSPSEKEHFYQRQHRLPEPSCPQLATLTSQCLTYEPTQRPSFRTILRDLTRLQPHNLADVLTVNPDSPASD

SMILES	Kd [1] [nM]	IC50 [5] [nM]	inhibition at 0.05 µM ([5]; 0.05 μM compound) [%]	further results
CNc1cc(-c2cn(C(C)C)c3ncccc23)nn2c(C(=O)N[C@H]3CC[C@H]3O)cnc12 (racemic) [Compound I-15, N-(2-hydroxycyclobutyl)-6-(1-isopropyl-1H-pyrrolo[2,3-b]pyridin-3-yl)-8-(methylamino)imidazo[1,2-b]pyridazine-3-carboxamide]	< 0.2	< 100		JAK2_IC50_RB (% INH_@_10 uM) at 10.0 uM [% INH] [2]: A (had a percent inhibition at 10 μM lower than 50); JAK1_IC50_RB (% INH_@_10 uM) at 10.0 uM [% INH] [3]: A (had a percent inhibition at 10 μM lower than 50); JAK3_IC50_RB (% INH_@_10 uM) at 10.0 uM [% INH] [4]: A (had a percent inhibition at 10 μM lower than 50); PBMC_IL-12-pSTAT4 (% Inhibition_Average_@0.05 uM) [%] ([5]; 0.05 μM compound, 1.7 ng/mL IL-12): ** (had a percent inhibition at 0.05 μM between 50 and 70)
CNc1cc(Nc2cccn([C@H]3CC[C@H](OC)CC3)c2=O)nn2c(C(=O)N[C@H]3CC[C@@H]3OC)cnc12 (racemic) [Compound I-21, N-(2-methoxycyclobutyl)-6-((1-((1r,4S)-4-methoxycyclohexyl)-2-oxo-1,2-dihydropyridin-3-yl)amino)-8-(methylamino)imidazo[1,2-b]pyridazine-3-carboxamide]	< 0.2	< 100	> 90	
CNc1cc(Nc2cccn([C@H]3[C@@H]4COC[C@@H]43)c2=O)nn2c(C(=O)N[C@H]3CC[C@@H]3OC)cnc12 (racemic) [Compound I-22, 6-((1-((1R,5S,6r)-3-oxabicyclo[3.1.0]hexan-6-yl)-2-oxo-1,2-dihydropyridin-3-yl)amino)-N-(2-methoxycyclobutyl)-8-(methylamino)imidazo[1,2-b]pyridazine-3-carboxamide]	< 0.2	< 100	70 to 90	
CNc1cc(Nc2cccn([C@H]3C[C@H](OC)C3)c2=O)nn2c(C(=O)N[C@H]3CC[C@@H]3OC)cnc12 (racemic) [Compound I-23, N-((1S,2S)-2-methoxycyclobutyl)-6-((1-((1r,3S)-3-methoxycyclobutyl)-2-oxo-1,2-dihydropyridin-3-yl)amino)-8-(methylamino)imidazo[1,2-b]pyridazine-3-carboxamide]	< 0.2	< 100	70 to 90	
CNc1cc(Nc2cccn(-c3ncccc3F)c2=O)nn2c(C(=O)N[C@H]3CC[C@@H]3OC)cnc12 (stereo in doubt) [Compound I-17, 6-((3′-fluoro-2-oxo-2H-[1,2′-bipyridin]-3-yl)amino)-N-(2-methoxycyclobutyl)-8-(methylamino)imidazo[1,2-b]pyridazine-3-carboxamide]	< 0.2	< 100	50 to 70	
CNc1cc(Nc2cccn(-c3ccccn3)c2=O)nn2c(C(=O)N[C@H]3CC[C@@H]3OC)cnc12 (stereo in doubt) [Compound I-18, N-(2-methoxycyclobutyl)-8-(methylamino)-6-((2-oxo-2H-[1,2′-bipyridin]-3-yl)amino)imidazo[1,2-b]pyridazine-3-carboxamide]	< 0.2	< 100	70 to 90	
CNc1cc(Nc2cccn(-c3ccc(C)nc3)c2=O)nn2c(C(=O)N[C@H]3CC[C@@H]3OC)cnc12 (stereo in doubt) [Compound I-19, N-(2-methoxycyclobutyl)-6-((6′-methyl-2-oxo-2H-[1,3′-bipyridin]-3-yl)amino)-8-(methylamino)imidazo[1,2-b]pyridazine-3-carboxamide]	< 0.2	< 100	50 to 70	
CNc1cc(Nc2cccn(C3CCOCC3)c2=O)nn2c(C(=O)N[C@H]3CC[C@@H]3OC)cnc12 (stereo in doubt) [Compound I-20, N-(2-methoxycyclobutyl)-8-(methylamino)-6-((2-oxo-1-(tetrahydro-2H-pyran-4-yl)-1,2-dihydropyridin-3-yl)amino)imidazo[1,2-b]pyridazine-3-carboxamide]	< 0.2	< 100	70 to 90	
CNc1cc(-c2cn(C(C)C)c3ncccc23)nn2c(C(=O)N[C@@H]3CC[C@@H]3O)cnc12 [Compound I-7, N-((1R,2S)-2-hydroxycyclobutyl)-6-(1-isopropyl-1H-pyrrolo[2,3-b]pyridin-3-yl)-8-(methylamino)imidazo[1,2-b]pyridazine-3-carboxamide]	< 0.2			inhibition at 10 µM [6]: < 50%; inhibition at 10 µM [2]: < 50%; inhibition at 10 µM [3]: < 50%; inhibition at 10 µM [4]: < 50%
CNc1cc(-c2cn(C3CCOCC3)c3ncccc23)nn2c(C(=O)N[C@@H]3CC[C@@H]3O)cnc12 [Compound I-8, N-((1R,2S)-2-hydroxycyclobutyl)-8-(methylamino)-6-(1-(tetrahydro-2H-pyran-4-yl)-1H-pyrrolo[2,3-b]pyridin-3-yl)imidazo[1,2-b]pyridazine-3-carboxamide]	< 0.2			
CNc1cc(-c2cn(CCN3CCOCC3)c3ncccc23)nn2c(C(=O)N[C@@H]3CC[C@@H]3O)cnc12 [Compound I-9, N-((1R,2S)-2-hydroxycyclobutyl)-8-(methylamino)-6-(1-(2-morpholinoethyl)-1H-pyrrol[2,3-b]pyridin-3-yl)imidazo[1,2-b]pyridazine-3-carboxamide]	0.2 to 1			inhibition at 10 µM [2]: < 50%; inhibition at 10 µM [3]: < 50%; inhibition at 10 µM [4]: < 50%
CNc1cc(-c2cn(C3CCOCC3)c3ncccc23)nn2c(C(=O)N[C@H]3CC[C@H]3O)cnc12 [Compound I-11, N-((1S,2R)-2-hydroxycyclobutyl)-8-(methylamino)-6-(1-(tetrahydro-2H-pyran-4-yl)-1H-pyrrolo[2,3-b]pyridin-3-yl)imidazo[1,2-b]pyridazine-3-carboxamide]	< 0.2		70 to 90	
CNc1cc(-c2cn(C(C)C)c3ncccc23)nn2c(C(=O)N[C@@H]3COC[C@@H]3O)cnc12 [Compound I-13, N-((3R,4R)-4-hydroxytetrahydrofuran-3-yl)-6-(1-isopropyl-1H-pyrrolo[2,3-b]pyridin-3-yl)-8-(methylamino)imidazo[1,2-b]pyridazine-3-carboxamide]	0.2 to 1			
CNc1cc(-c2cn(C(C)C)c3ncccc23)nn2c(C(=O)N[C@H]3COC[C@H]3O)cnc12 [Compound I-14, N-((3S,4S)-4-hydroxytetrahydrofuran-3-yl)-6-(1-isopropyl-1H-pyrrolo[2,3-b]pyridin-3-yl)-8-(methylamino)imidazo[1,2-b]pyridazine-3-carboxamide]	< 0.2		70 to 90	
